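Where inhibition never reached the appropriate level, the endpoint shown equals the highest concentration tested. Otherwise, values were interpolated linearly from a five-concentration, 48-hour dose response in 96-well plates. At the GI50, growth is halved. TGI denotes the concentration required for complete inhibition of growth.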
Legend:
Experiment in all cases: growth of human tumour cells (NCI), 48 h
DLD-1 colon = system: DLD-1 colon
DMS 114 small cell lung = system: DMS 114 small cell lung
DMS 273 small cell lung = system: DMS 273 small cell lung
M19-MEL melanoma = system: M19-MEL melanoma
SNB-78 CNS = system: SNB-78 CNS
BT-549 breast = system: BT-549 breast
DU-145 prostate = system: DU-145 prostate
HS 578T breast = system: HS 578T breast
MDA-MB-231 breast = system: MDA-MB-231 breast
NCI/ADR-RES ovarian = system: NCI/ADR-RES ovarian

Compound	TGI (DLD-1 colon) [µM]	TGI (DMS 114 small cell lung) [µM]	TGI (DMS 273 small cell lung) [µM]	TGI (M19-MEL melanoma) [µM]	TGI (SNB-78 CNS) [µM]	also measured
CC(C)=NO.CC(C)=NO.CC(C)=NO.CC(C)=NO.[Ti]	> 100	> 100	> 100	> 100	> 100	GI50 (DLD-1 colon): > 100 µM; GI50 (DMS 114 small cell lung): > 100 µM; GI50 (DMS 273 small cell lung): > 100 µM; GI50 (M19-MEL melanoma): > 100 µM; GI50 (SNB-78 CNS): > 100 µM
CCOC(=O)C1C(=O)C(=O)N2CCc3c([nH]c4ccccc34)C12 (configuration not stated)	> 100	> 100		> 100		
CN1C/C(=C\c2ccco2)c2nc(N)nc(-c3ccco3)c2C1	> 100	> 100	> 100	> 100		
CC1=C2[C@@H](c3ccccc3)C3C=CC2(C=C3C(F)(F)F)N(C(=O)NC2CCCCC2)C1=O (some centres not stated)	> 100	> 100	> 100	> 100	> 100	
NC1=NN(c2ccccc2)C(=O)C1/C(=N\NC(=O)c1cc2ccccc2cc1O)C(=O)Nc1ccc(Cl)cc1 (configuration not stated)	> 100	56.7	> 100	89.6	> 100	
Nc1nc(N)c(-c2ccccc2)c(C(=O)Nc2nccs2)n1	> 100	> 100		> 100	> 100	
O=C1NC2(CCCCC2)C2=C1CCCCC2	> 100	> 100	> 100	> 100	> 100	
CN(C)c1ccc(/C=C2\Cc3ccccc3C2=O)cc1Br	> 100	> 100		> 100	> 100	
NC1CC(n2ccc(=O)[nH]c2=O)OC1C(O)CO (configuration not stated)	> 100	> 100	> 100	> 100		
CCCCCCCCCCCCCCCC(=O)NCC(OCC)OCC	> 100	> 100	> 100	> 100	> 100	
CCOC(=O)/C(=C/c1ccc[nH]1)P(=O)(OCC)OCC	> 100	> 100	> 100	> 100	> 100	
O=[N+]([O-])c1cccc(C2=NOC3CCCC23)c1 (configuration not stated)	> 100	> 100	> 100	> 100	> 100	
Cn1nc(-c2ccccc2)c(C(=O)/C=C/c2ccccc2)c(N2CCCC2)c1=O	34.2	34.2	93.1	37.3		
O=C1COc2cc3c(cc2N1)SCC(=O)N3	> 100	> 100	> 100	> 100	> 100	
Cc1nc(-c2cccnc2)sc1C(=O)/C=C/c1ccc(Cl)cc1Cl	> 100	> 100	> 100	> 100	> 100	
CC1CC2C(=O)N(c3ccccc3)C(=O)C2c2[nH]c3ccccc3c21 (configuration not stated)	> 100	> 100	> 100	> 100	> 100	

Compound	TGI (DLD-1 colon) [µM]	TGI (DMS 114 small cell lung) [µM]	TGI (DMS 273 small cell lung) [µM]	TGI (M19-MEL melanoma) [µM]	TGI (SNB-78 CNS) [µM]	also measured
Nc1ccc2ncc(Nc3ccc(Cl)c(Cl)c3)nc2c1	> 100	42.1	49.5	47.4	74.1	
CCOC(=O)c1c(/C=N\Nc2ccccc2)nc2ccccc2c1-c1ccccc1		98.1	> 100	60.7	> 100	
O=C(Nc1ccccc1)Oc1ccccc1C1CCCCC1	> 100	32.8	42.6	37.5	54.9	
CCCCc1c2c(nc3c1CC/C(=C\c1ccccc1)C3=O)CCCC2	12.7	27.5	8.26	16.9	9.38	
Cc1c(C(=O)C/C(=N/NC(=O)CC#N)C(N)=O)[n+](=O)c2ccccc2n1[O-]	> 100	57.8	> 100	50.7	> 100	
O=C(O)C12C3C4C1C1C2C3C41I (configuration not stated)	> 100	> 100	> 100	> 100	> 100	
CC1=CC(=O)N2[C@H](OC[C@@H]2C(C)C)O1	> 100	> 100		> 100		
CCOC(=O)C1=C(O)c2c(OC)ccc(OC)c2C(=O)C1=O	> 100	> 100	> 100	> 100	> 100	
CCNC(=O)O/N=C1/C=C2CC[C@@H]3C(CC[C@@]4(C)C3CC[C@@H]4OC(=O)NCC)[C@@]2(C)CC1 (some centres not stated)	> 100	3.29	5.5	10.3	9.3	
CC(=O)OCC1OC(OC(C)=O)C(NC#N)C(OC(C)=O)C1OC(C)=O (configuration not stated)	> 100	> 100	> 100	> 100		
CCOC(=O)NC/C=C/CO	> 100	> 100	> 100	> 100	> 100	
COc1cccc(OC)c1/C=N\N1C(=O)c2ccccc2C1=O	> 100	91	84.6	> 100	> 100	
Cc1c(N)nc(C2CC(=O)N2CC(N)C(N)=O)nc1C(=O)NC(C(=O)NC(C)C(O)C(C)C(=O)NC(C(=O)NCCc1nc(-c2nc(C(=O)NCCNCC(C)O)cs2)cs1)C(C)O)C(OC1OC(CO)C(O)C(O)C1OC1OC(CO)C(O)C(OC(N)=O)C1O)c1cnc[nH]1 (configuration not stated)	> 100	4.47	12	> 57.6	> 100	TGI (BT-549 breast): > 50 µM; TGI (DU-145 prostate): 37.6 µM; TGI (HS 578T breast): 50 µM; TGI (MDA-MB-231 breast): > 50 µM; TGI (NCI/ADR-RES ovarian): 50 µM
COC(=O)N/N=C(\c1nc2ccc(Cl)cc2[nH]c1=O)C(O)c1ccc([N+](=O)[O-])cc1 (configuration not stated)	> 100	> 100	> 100	> 100	> 100	
COC(=O)CCSC(=O)Nc1ccccc1Cl	> 100	> 100	> 100		> 100	
CN1OC(CO)CC12C1CC3CC(C1)CC2C3 (configuration not stated)	> 100	> 100	> 100	> 100		

Source: PubChem BioAssay (NCI)
